Results as given in ChEMBL document CHEMBL1139781, “Pyrazolo[3,4-d]pyrimidines as potent inhibitors of the insulin-like growth factor receptor (IGF-IR)” (Bioorg Med Chem Lett, 2007).

System: Mus musculus
Experiment: In vivo inhibition of IFG1R autophosphorylation in C57BL/6 mouse lung at 12.5 mg/kg, po after 4 hrs
Type: organism-based
Set-up: dose 12.5 mg/kg, route oral
Conditions: C57BL6, po

SMILES	inhibition at 12.5 mg/kg
Nc1ncnc2c1c(-c1ccc3nc(Cc4ccccc4Cl)[nH]c3c1)nn2[C@H]1CC[C@H](N2CCOCC2)CC1	92%

System: Mus musculus
Experiment: Dose normalized AUC in iv dosed mouse
Type: ADME, organism-based
Conditions: in vivo

SMILES	AUC
Nc1ncnc2c1c(-c1ccc3nc(Cc4ccccc4)[nH]c3c1)nn2[C@H]1CC[C@H](N2CCOCC2)CC1	1.1 µmol·h/L/mg/kg
Nc1ncnc2c1c(-c1ccc3nc(Cc4ccccc4Cl)[nH]c3c1)nn2[C@H]1CC[C@H](N2CCOCC2)CC1	1.5 µmol·h/L/mg/kg
Nc1ncnc2c1c(-c1ccc3nc(Cc4cccs4)[nH]c3c1)nn2[C@H]1CC[C@H](N2CCOCC2)CC1	0.42 µmol·h/L/mg/kg

Molecular target: T1, Insulin-like growth factor 1 receptor (Homo sapiens, UniProt P08069)
T1 sequence (P08069 31-736 limits assumed): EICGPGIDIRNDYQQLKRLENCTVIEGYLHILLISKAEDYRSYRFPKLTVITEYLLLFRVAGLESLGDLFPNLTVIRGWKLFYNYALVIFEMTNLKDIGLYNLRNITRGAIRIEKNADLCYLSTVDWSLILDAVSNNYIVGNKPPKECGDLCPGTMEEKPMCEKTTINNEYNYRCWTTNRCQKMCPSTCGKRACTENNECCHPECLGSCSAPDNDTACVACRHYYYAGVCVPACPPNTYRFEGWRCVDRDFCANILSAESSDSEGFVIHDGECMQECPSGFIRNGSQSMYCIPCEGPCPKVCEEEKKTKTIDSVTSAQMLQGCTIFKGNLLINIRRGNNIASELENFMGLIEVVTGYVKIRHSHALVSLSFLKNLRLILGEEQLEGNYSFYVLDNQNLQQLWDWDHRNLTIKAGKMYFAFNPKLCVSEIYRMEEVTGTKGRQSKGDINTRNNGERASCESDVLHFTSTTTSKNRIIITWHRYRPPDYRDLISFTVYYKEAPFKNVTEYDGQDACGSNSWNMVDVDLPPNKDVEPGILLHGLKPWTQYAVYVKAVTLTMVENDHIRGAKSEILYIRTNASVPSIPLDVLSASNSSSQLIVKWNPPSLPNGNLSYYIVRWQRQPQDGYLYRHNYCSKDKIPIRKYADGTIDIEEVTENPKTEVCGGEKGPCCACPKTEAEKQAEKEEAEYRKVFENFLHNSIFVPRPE
T1 sequence (P08069 741-1367 limits assumed): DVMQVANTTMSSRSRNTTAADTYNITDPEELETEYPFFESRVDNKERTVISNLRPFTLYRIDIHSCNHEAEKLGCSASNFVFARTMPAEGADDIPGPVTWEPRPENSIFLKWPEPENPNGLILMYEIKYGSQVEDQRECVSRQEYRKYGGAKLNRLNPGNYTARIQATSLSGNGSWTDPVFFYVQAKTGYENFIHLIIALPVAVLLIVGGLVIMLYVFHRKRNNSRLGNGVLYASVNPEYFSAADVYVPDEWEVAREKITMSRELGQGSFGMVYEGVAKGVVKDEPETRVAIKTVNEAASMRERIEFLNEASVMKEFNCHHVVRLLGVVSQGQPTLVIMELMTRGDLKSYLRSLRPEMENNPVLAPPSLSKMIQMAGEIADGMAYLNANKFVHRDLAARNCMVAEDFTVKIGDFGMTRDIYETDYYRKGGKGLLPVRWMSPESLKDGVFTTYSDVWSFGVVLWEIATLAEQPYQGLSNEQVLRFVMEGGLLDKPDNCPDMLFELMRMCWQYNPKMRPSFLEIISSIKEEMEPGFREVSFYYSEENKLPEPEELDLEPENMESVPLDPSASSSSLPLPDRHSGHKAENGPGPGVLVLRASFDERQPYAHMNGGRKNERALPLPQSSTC
Experiment: Inhibition IGF1R phosphorylation in human MiaPaCa2 cells
Type: cell-based
Conditions: not given

SMILES	IC50
CN1CCN([C@H]2C[C@@H](c3nc(-c4ccc5ccc(-c6ccccc6)nc5c4)c4c(N)nccn43)C2)CC1	58 nM
Nc1ncnc2c1c(-c1ccc3nc(Cc4ccccc4)[nH]c3c1)nn2[C@H]1CC[C@H](N2CCOCC2)CC1	94 nM
Nc1ncnc2c1c(-c1ccc3nc(Cc4cc(F)cc(F)c4)[nH]c3c1)nn2[C@H]1CC[C@H](N2CCOCC2)CC1	183 nM
Nc1ncnc2c1c(-c1ccc3nc(Cc4ccccc4Cl)[nH]c3c1)nn2[C@H]1CC[C@H](N2CCOCC2)CC1	90 nM
Cc1cccc(Cc2nc3ccc(-c4nn([C@H]5CC[C@H](N6CCOCC6)CC5)c5ncnc(N)c45)cc3[nH]2)c1	267 nM
Nc1ncnc2c1c(-c1ccc3nc(Cc4ccc(Cl)c(Cl)c4)[nH]c3c1)nn2[C@H]1CC[C@H](N2CCOCC2)CC1	429 nM
Cc1ccc(Cc2nc3ccc(-c4nn([C@H]5CC[C@H](N6CCOCC6)CC5)c5ncnc(N)c45)cc3[nH]2)cc1	257 nM
Nc1ncnc2c1c(-c1ccc3nc(Cc4ccc(Cl)cc4)[nH]c3c1)nn2[C@H]1CC[C@H](N2CCOCC2)CC1	637 nM
Nc1ncnc2c1c(-c1ccc3nc(Cc4cccc(Cl)c4)[nH]c3c1)nn2[C@H]1CC[C@H](N2CCOCC2)CC1	372 nM
Nc1ncnc2c1c(-c1ccc3nc(Cc4c(F)cccc4F)[nH]c3c1)nn2[C@H]1CC[C@H](N2CCOCC2)CC1	104 nM
Nc1ncnc2c1c(-c1ccc3[nH]c(Cc4ccccc4Br)nc3c1)nn2[C@H]1CC[C@H](N2CCOCC2)CC1	65 nM
Nc1ncnc2c1c(-c1ccc3nc(Cc4cccc(F)c4F)[nH]c3c1)nn2[C@H]1CC[C@H](N2CCOCC2)CC1	197 nM
Nc1ncnc2c1c(-c1ccc3nc(Cc4ccc(F)cc4)[nH]c3c1)nn2[C@H]1CC[C@H](N2CCOCC2)CC1	1250 nM
Cc1ccccc1Cc1nc2ccc(-c3nn([C@H]4CC[C@H](N5CCOCC5)CC4)c4ncnc(N)c34)cc2[nH]1	117 nM
Nc1ncnc2c1c(-c1ccc3nc(Cc4cccs4)[nH]c3c1)nn2[C@H]1CC[C@H](N2CCOCC2)CC1	56 nM
Nc1ncnc2c1c(-c1ccc3nc(Cc4ccc(F)c(F)c4)[nH]c3c1)nn2[C@H]1CC[C@H](N2CCOCC2)CC1	819 nM
Nc1ncnc2c1c(-c1ccc3[nH]c(Cc4c(F)cccc4Cl)nc3c1)nn2[C@H]1CC[C@H](N2CCOCC2)CC1	113 nM
Nc1ncnc2c1c(-c1ccc3nc(Cc4ccc5ccccc5c4)[nH]c3c1)nn2[C@H]1CC[C@H](N2CCOCC2)CC1	2340 nM
Cc1nc(Cc2nc3ccc(-c4nn([C@H]5CC[C@H](N6CCOCC6)CC5)c5ncnc(N)c45)cc3[nH]2)cs1	1540 nM
Cc1cc(-c2nn([C@H]3CC[C@H](N4CCOCC4)CC3)c3ncnc(N)c23)cc2[nH]c(Cc3ccccc3)nc12	2790 nM
COc1ccccc1Cc1nc2ccc(-c3nn([C@H]4CC[C@H](N5CCOCC5)CC4)c4ncnc(N)c34)cc2[nH]1	142 nM
Nc1ncnc2c1c(-c1ccc3nc(Cc4cccc(F)c4)[nH]c3c1)nn2[C@H]1CC[C@H](N2CCOCC2)CC1	140 nM
Nc1ncnc2c1c(-c1ccc3nc(Cc4ccccn4)[nH]c3c1)nn2[C@H]1CC[C@H](N2CCOCC2)CC1	2650 nM
Nc1ncnc2c1c(-c1ccc3nc(Cc4ccsc4)[nH]c3c1)nn2[C@H]1CC[C@H](N2CCOCC2)CC1	84 nM
Cn1c(Cc2ccccc2)nc2cc(-c3nn([C@H]4CC[C@H](N5CCOCC5)CC4)c4ncnc(N)c34)ccc21	132 nM
Nc1ncnc2c1c(-c1ccc3nc(Cc4ccccc4F)[nH]c3c1)nn2[C@H]1CC[C@H](N2CCOCC2)CC1	168 nM
Nc1ncnc2c1c(-c1ccc3[nH]c(Cc4c(Cl)cccc4Cl)nc3c1)nn2[C@H]1CC[C@H](N2CCOCC2)CC1	252 nM
Nc1ncnc2c1c(-c1ccc3[nH]c(-c4ccccc4)nc3c1)nn2[C@H]1CC[C@H](N2CCOCC2)CC1	787 nM

System: not listed separately
Experiment: Bioavailability in mouse
Type: ADME, organism-based
Conditions: in vivo

SMILES	bioavailability
Nc1ncnc2c1c(-c1ccc3nc(Cc4ccccc4)[nH]c3c1)nn2[C@H]1CC[C@H](N2CCOCC2)CC1	15%
Nc1ncnc2c1c(-c1ccc3nc(Cc4ccccc4Cl)[nH]c3c1)nn2[C@H]1CC[C@H](N2CCOCC2)CC1	28%
Nc1ncnc2c1c(-c1ccc3nc(Cc4cccs4)[nH]c3c1)nn2[C@H]1CC[C@H](N2CCOCC2)CC1	9%

System: not listed separately
Experiment: Drug concentration in C57BL/6 mouse plasma at 12.5 mg/kg, po after 4 hrs
Type: ADME, organism-based, C57BL6
Set-up: dose 12.5 mg/kg, route oral
Conditions: not given

SMILES	concentration at 4 h
Nc1ncnc2c1c(-c1ccc3nc(Cc4ccccc4Cl)[nH]c3c1)nn2[C@H]1CC[C@H](N2CCOCC2)CC1	2400 nM

System: Mus musculus
Experiment: Dose normalized AUC in po dosed mouse
Type: ADME, organism-based
Conditions: in vivo

SMILES	AUC
Nc1ncnc2c1c(-c1ccc3nc(Cc4ccccc4)[nH]c3c1)nn2[C@H]1CC[C@H](N2CCOCC2)CC1	0.16 µmol·h/L/mg/kg
Nc1ncnc2c1c(-c1ccc3nc(Cc4ccccc4Cl)[nH]c3c1)nn2[C@H]1CC[C@H](N2CCOCC2)CC1	0.43 µmol·h/L/mg/kg
Nc1ncnc2c1c(-c1ccc3nc(Cc4cccs4)[nH]c3c1)nn2[C@H]1CC[C@H](N2CCOCC2)CC1	0.039 µmol·h/L/mg/kg

System: not listed separately
Experiment: Plasma clearance in mouse
Type: ADME, organism-based
Conditions: not given

SMILES	clearance
Nc1ncnc2c1c(-c1ccc3nc(Cc4ccccc4)[nH]c3c1)nn2[C@H]1CC[C@H](N2CCOCC2)CC1	38.3 mL/min/kg
Nc1ncnc2c1c(-c1ccc3nc(Cc4ccccc4Cl)[nH]c3c1)nn2[C@H]1CC[C@H](N2CCOCC2)CC1	20 mL/min/kg
Nc1ncnc2c1c(-c1ccc3nc(Cc4cccs4)[nH]c3c1)nn2[C@H]1CC[C@H](N2CCOCC2)CC1	76.7 mL/min/kg

System: not listed separately
Experiment: Half life in mouse
Type: ADME, organism-based
Conditions: in vivo

SMILES	half-life
Nc1ncnc2c1c(-c1ccc3nc(Cc4ccccc4)[nH]c3c1)nn2[C@H]1CC[C@H](N2CCOCC2)CC1	1 h
Nc1ncnc2c1c(-c1ccc3nc(Cc4ccccc4Cl)[nH]c3c1)nn2[C@H]1CC[C@H](N2CCOCC2)CC1	1.2 h
Nc1ncnc2c1c(-c1ccc3nc(Cc4cccs4)[nH]c3c1)nn2[C@H]1CC[C@H](N2CCOCC2)CC1	0.6 h

Molecular target: T1, Insulin-like growth factor 1 receptor
Experiment: Inhibition of human IGF1R expressed in Sf21 cells by time-resolved fluorescence assay
Conditions: not given

SMILES	IC50
CN1CCN([C@H]2C[C@@H](c3nc(-c4ccc5ccc(-c6ccccc6)nc5c4)c4c(N)nccn43)C2)CC1	37 nM
Nc1ncnc2c1c(-c1ccc3nc(Cc4ccccc4)[nH]c3c1)nn2[C@H]1CC[C@H](N2CCOCC2)CC1	64 nM
Nc1ncnc2c1c(-c1ccc3nc(Cc4cc(F)cc(F)c4)[nH]c3c1)nn2[C@H]1CC[C@H](N2CCOCC2)CC1	152 nM
Nc1ncnc2c1c(-c1ccc3nc(Cc4ccccc4Cl)[nH]c3c1)nn2[C@H]1CC[C@H](N2CCOCC2)CC1	37 nM
Cc1cccc(Cc2nc3ccc(-c4nn([C@H]5CC[C@H](N6CCOCC6)CC5)c5ncnc(N)c45)cc3[nH]2)c1	186 nM
Nc1ncnc2c1c(-c1ccc3nc(Cc4ccc(Cl)c(Cl)c4)[nH]c3c1)nn2[C@H]1CC[C@H](N2CCOCC2)CC1	488 nM
Cc1ccc(Cc2nc3ccc(-c4nn([C@H]5CC[C@H](N6CCOCC6)CC5)c5ncnc(N)c45)cc3[nH]2)cc1	70 nM
Nc1ncnc2c1c(-c1ccc3nc(Cc4ccc(Cl)cc4)[nH]c3c1)nn2[C@H]1CC[C@H](N2CCOCC2)CC1	642 nM
Nc1ncnc2c1c(-c1ccc3nc(Cc4cccc(Cl)c4)[nH]c3c1)nn2[C@H]1CC[C@H](N2CCOCC2)CC1	123 nM
Nc1ncnc2c1c(-c1ccc3nc(Cc4c(F)cccc4F)[nH]c3c1)nn2[C@H]1CC[C@H](N2CCOCC2)CC1	79 nM
Nc1ncnc2c1c(-c1ccc3[nH]c(Cc4ccccc4Br)nc3c1)nn2[C@H]1CC[C@H](N2CCOCC2)CC1	71 nM
Nc1ncnc2c1c(-c1ccc3nc(Cc4cccc(F)c4F)[nH]c3c1)nn2[C@H]1CC[C@H](N2CCOCC2)CC1	173 nM
Nc1ncnc2c1c(-c1ccc3nc(Cc4ccc(F)cc4)[nH]c3c1)nn2[C@H]1CC[C@H](N2CCOCC2)CC1	924 nM
Cc1ccccc1Cc1nc2ccc(-c3nn([C@H]4CC[C@H](N5CCOCC5)CC4)c4ncnc(N)c34)cc2[nH]1	38 nM
Nc1ncnc2c1c(-c1ccc3nc(Cc4cccs4)[nH]c3c1)nn2[C@H]1CC[C@H](N2CCOCC2)CC1	23 nM
Nc1ncnc2c1c(-c1ccc3[nH]c(Cc4cccc(Cl)c4Cl)nc3c1)nn2[C@H]1CC[C@H](N2CCOCC2)CC1	2320 nM
Nc1ncnc2c1c(-c1ccc3nc(Cc4ccc(F)c(F)c4)[nH]c3c1)nn2[C@H]1CC[C@H](N2CCOCC2)CC1	674 nM
Nc1ncnc2c1c(-c1ccc3[nH]c(Cc4c(F)cccc4Cl)nc3c1)nn2[C@H]1CC[C@H](N2CCOCC2)CC1	90 nM
Nc1ncnc2c1c(-c1ccc3nc(Cc4ccc5ccccc5c4)[nH]c3c1)nn2[C@H]1CC[C@H](N2CCOCC2)CC1	1310 nM
Cc1nc(Cc2nc3ccc(-c4nn([C@H]5CC[C@H](N6CCOCC6)CC5)c5ncnc(N)c45)cc3[nH]2)cs1	3310 nM
Cc1cc(-c2nn([C@H]3CC[C@H](N4CCOCC4)CC3)c3ncnc(N)c23)cc2[nH]c(Cc3ccccc3)nc12	4330 nM
COc1ccccc1Cc1nc2ccc(-c3nn([C@H]4CC[C@H](N5CCOCC5)CC4)c4ncnc(N)c34)cc2[nH]1	81 nM
Nc1ncnc2c1c(-c1ccc3nc(Cc4cccc(F)c4)[nH]c3c1)nn2[C@H]1CC[C@H](N2CCOCC2)CC1	58 nM
Nc1ncnc2c1c(-c1ccc3nc(Cc4ccccn4)[nH]c3c1)nn2[C@H]1CC[C@H](N2CCOCC2)CC1	2340 nM
Nc1ncnc2c1c(-c1ccc3nc(Cc4ccsc4)[nH]c3c1)nn2[C@H]1CC[C@H](N2CCOCC2)CC1	32 nM
Cn1c(Cc2ccccc2)nc2cc(-c3nn([C@H]4CC[C@H](N5CCOCC5)CC4)c4ncnc(N)c34)ccc21	35 nM
Nc1ncnc2c1c(-c1ccc3nc(Cc4ccccc4F)[nH]c3c1)nn2[C@H]1CC[C@H](N2CCOCC2)CC1	51 nM
Nc1ncnc2c1c(-c1ccc3[nH]c(Cc4c(Cl)cccc4Cl)nc3c1)nn2[C@H]1CC[C@H](N2CCOCC2)CC1	125 nM
Nc1ncnc2c1c(-c1ccc3[nH]c(-c4ccccc4)nc3c1)nn2[C@H]1CC[C@H](N2CCOCC2)CC1	176 nM
